The values below come from ChEMBL document CHEMBL1201862, “PubChem BioAssay data set” (2004).

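Following 48 hours of exposure in 96-well plates, responses at five concentrations were used to interpolate endpoints linearly. Here, GI50 denotes the concentration required for 50% inhibition of growth.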 Active and inactive are the calls of the source. Rule as the data show it: active = GI50 up to about 1.1 µM and inactive = higher.

Some test systems named below: 786-0; A498; CCRF-CEM; DU-145; EKVX; HCT-116; HCT-15; HOP-92; HT-29; MDA-MB-231; MDA-MB-435; NCI-H522; NCI/ADR-RES; OVCAR-3; RPMI-8226; SK-MEL-28; SR; SW-620; SNB-75; SNB-19.
Common to all, as to experiment: NCI anticancer screen, dose series, 48 h

Consider `COc1ccc(/C=C2\Sc3nnc(-c4ccccc4)n3N=C2c2cc(F)c(Cl)cc2Cl)cc1OC`, for which the GI50 in the assay on 786-0 is 48.4 µM (inactive); in the assay with A498, > 100 µM (inactive); with CCRF-CEM it was 4.98 µM (inactive); in the assay with DU-145, > 100 µM (inactive); in the assay on EKVX, > 100 µM (inactive); with HCT-116 it was 6.24 µM (inactive). For the same compound, the GI50 was 19.1 µM in the assay on HCT-15; 37 µM (inactive) in the assay with HOP-92; 12.1 µM (inactive) in the assay on HT-29; 59.2 µM (inactive) in the assay with MDA-MB-231; 13.8 µM (inactive) with MDA-MB-435; 12.6 µM (inactive) in the assay with NCI-H522. Further, the GI50 is 33.1 µM (inactive) in the assay on NCI/ADR-RES; > 100 µM (inactive) with OVCAR-3; 6.04 µM (inactive) in the assay on RPMI-8226; > 100 µM (inactive) with SK-MEL-28; 2.14 µM (inactive) in the assay with SR; 14.2 µM (inactive) in the assay with SW-620.

As to `Cc1c[nH]c(C(=O)O)c1-c1cccn1-c1ccc(Cl)cc1[N+](=O)[O-]`, the GI50 in the assay with 786-0, with A498, in the assay with CCRF-CEM, in the assay with DU-145, in the assay on EKVX and with HCT-116 was > 100 µM (inactive) throughout. For the same compound, the GI50 with HCT-15 is more than 100 µM; in the assay on HOP-92, 56 µM (inactive); with HT-29, > 100 µM (inactive); in the assay on MDA-MB-231 it was > 100 µM (inactive); with MDA-MB-435, > 100 µM (inactive); in the assay on NCI-H522, 72.8 µM (inactive). Further, the GI50 in the assay on NCI/ADR-RES is 72.3 µM (inactive); in the assay with OVCAR-3, 11.8 µM (inactive); in the assay with SK-MEL-28, > 100 µM (inactive); with SNB-75, > 100 µM (inactive); with SR, 99.3 µM (inactive); in the assay with SW-620, > 100 µM (inactive).

As for `CCOC(=O)CCC(NC(=O)Cc1ccc(Nc2nc3cc(F)c(F)cc3nc2C(=O)OCC)cc1)C(=O)OCC` (centres undefined), the GI50 with 786-0 is > 100 µM (inactive); with A498, > 100 µM (inactive); in the assay on CCRF-CEM it was 20.8 µM (inactive); in the assay with DU-145, > 100 µM (inactive); with EKVX, > 100 µM (inactive); with HCT-116, 83.9 µM (inactive). Moreover, the GI50 in the assay on HCT-15 is more than 100 µM; with HOP-92 it was 28.8 µM (inactive); in the assay with HT-29, > 100 µM (inactive); in the assay on MDA-MB-231 it was 41.8 µM (inactive); in the assay on MDA-MB-435, > 100 µM (inactive); in the assay on NCI-H522 it was 38.2 µM (inactive). Further, the GI50 in the assay on NCI/ADR-RES is > 100 µM (inactive); in the assay with OVCAR-3, > 100 µM (inactive); in the assay with SK-MEL-28 it was > 100 µM (inactive); with SNB-19, > 100 µM (inactive); with SNB-75, 35.2 µM (inactive); in the assay with SR, 27.5 µM (inactive). The GI50 with SW-620 was 73.6 µM (inactive).

In the case of `CSC1=N/C(=C\c2c[nH]c3ccccc23)C(=O)N1`, the GI50 with 786-0 was 84.3 µM (inactive); in the assay with A498 it was 38.1 µM (inactive); with CCRF-CEM, > 100 µM (inactive); in the assay on DU-145, 96.8 µM (inactive); in the assay on HCT-116, 70.3 µM (inactive); with HCT-15, 75.3 µM. Also, the GI50 in the assay on HOP-92 was > 100 µM (inactive); with HT-29, 31.6 µM (inactive); in the assay with MDA-MB-231 it was 52.6 µM (inactive); with MDA-MB-435, 55.2 µM (inactive); in the assay on NCI/ADR-RES it was 85.7 µM (inactive); in the assay on OVCAR-3, 85.3 µM (inactive). For the same compound, the GI50 is 77.4 µM (inactive) in the assay with RPMI-8226; > 100 µM (inactive) in the assay with SK-MEL-28; > 100 µM (inactive) in the assay on SNB-19; 27.7 µM (inactive) in the assay with SNB-75; 97.7 µM (inactive) in the assay on SR; > 100 µM (inactive) with SW-620.

For the compound `C=CC1=C(C)c2cc3[nH]c(c4c5nc(cc6[nH]c(cc1n2)c(C=O)c6CC)C(C)=C5C(=O)[C@@H]4C(=O)OC)[C@@H](CCC(=O)O)[C@@H]3C`, the GI50 with 786-0 was > 100 µM (inactive); with A498, > 100 µM (inactive); in the assay on CCRF-CEM, 31.3 µM (inactive); in the assay on DU-145, 13.4 µM (inactive); in the assay on EKVX it was > 100 µM (inactive); in the assay with HCT-116 it was 65.5 µM (inactive). Besides, the GI50 in the assay with HCT-15 was 35.6 µM; in the assay on HOP-92, > 100 µM (inactive); in the assay on HT-29 it was > 100 µM (inactive); in the assay on MDA-MB-231, 28 µM (inactive); in the assay on MDA-MB-435, > 100 µM (inactive); with NCI-H522, 30.8 µM (inactive). Besides, the GI50 with NCI/ADR-RES was > 100 µM (inactive); with SK-MEL-28, > 100 µM (inactive); with SNB-19, > 100 µM (inactive); in the assay with SNB-75, 2.54 µM (inactive); in the assay with SR, 10 µM (inactive); in the assay on SW-620, 66.5 µM (inactive).

Turning to `Nc1nc(-c2ccc3ccccc3c2)cc(-c2cc(-c3ccc4ccccc4c3)nc(N)n2)n1`, the GI50 in the assay with 786-0 is > 100 µM (inactive); in the assay with A498, > 100 µM (inactive); in the assay on CCRF-CEM it was > 100 µM (inactive); with DU-145, > 100 µM (inactive); in the assay on EKVX, 75.3 µM (inactive); with HCT-116, > 100 µM (inactive). The GI50 in the assay on HCT-15 is more than 100 µM; in the assay with HOP-92 it was > 100 µM (inactive); in the assay on HT-29, > 100 µM (inactive); in the assay with MDA-MB-231 it was > 100 µM (inactive); with MDA-MB-435 it was > 100 µM (inactive); in the assay on NCI-H522, > 100 µM (inactive). Besides, the GI50 with NCI/ADR-RES, in the assay with OVCAR-3, with RPMI-8226, in the assay on SK-MEL-28, in the assay on SNB-19 and in the assay with SR was > 100 µM (inactive) each time. For the same compound, the GI50 with SW-620 was > 100 µM (inactive).

`CC(C)(C)OC(=O)N[C@H]1CCN(C2CCCCC2)C1=O`: the GI50 in the assay on 786-0, with A498, in the assay with CCRF-CEM, in the assay with DU-145, in the assay with EKVX and with HCT-116 was > 100 µM (inactive) throughout. Besides, the GI50 is more than 100 µM in the assay with HCT-15; > 100 µM (inactive) in the assay with HOP-92; > 100 µM (inactive) with MDA-MB-231; > 100 µM (inactive) with MDA-MB-435; 40.6 µM (inactive) in the assay on NCI/ADR-RES; > 100 µM (inactive) in the assay on RPMI-8226. Further, the GI50 was > 100 µM (inactive) in the assay on SK-MEL-28; > 100 µM (inactive) in the assay with SNB-19; > 100 µM (inactive) in the assay with SNB-75; > 10 µM (inactive) in the assay with SR; > 100 µM (inactive) with SW-620.

On to `CC(=O)OCC1OC(n2c3c(c(-c4ccc(Cl)cc4)c(C#N)c2=S)CCCC3)C(OC(C)=O)C(OC(C)=O)C1OC(C)=O` (centres undefined), for which the GI50 with 786-0 was 80.7 µM (inactive); in the assay with A498, 35.2 µM (inactive); with CCRF-CEM, 40.7 µM (inactive); with DU-145, 42.6 µM (inactive); in the assay on HCT-116, 33.3 µM (inactive); with HCT-15, 61.2 µM. Also, the GI50 is 7.29 µM (inactive) with HOP-92; 57.5 µM (inactive) in the assay on HT-29; > 100 µM (inactive) in the assay with MDA-MB-231; 67.3 µM (inactive) with MDA-MB-435; 40.7 µM (inactive) in the assay on NCI-H522; 46.5 µM (inactive) in the assay on NCI/ADR-RES. Also, the GI50 in the assay with OVCAR-3 was 21.7 µM (inactive); in the assay with SK-MEL-28, 32.4 µM (inactive); in the assay with SNB-19, 41.8 µM (inactive); in the assay with SNB-75, 15.3 µM (inactive); in the assay on SR it was > 100 µM (inactive).
